Drawing on patent US10344017B2, “Pyrrolcarboxamide derivatives for the inhibition of ERK5” (CANCER RESEARCH TECHNOLOGY LIMITED, priority 2014, dated 2019), this text covers IC50 for 41 compounds.

In general, pIC50 refers to −log10 of the IC50, conventionally taken in molar units.

The assay has as its target T1, ERK5 (Homo sapiens, UniProt Q13164).
T1 construct: made in house
As to the kind of experiment: ERK5 IMAP assay (fluorescence polarisation). The class given is biochemical. Conditions: average (e.g. geometric mean) where more than one data point; read-out: ERK5 IC50. A general note: Fluorescence polarisation rises when a labelled molecule tumbles more slowly, as on binding a larger partner.

pIC50: −log10 of the molar value.

T1 sequence (Q13164 whole entry): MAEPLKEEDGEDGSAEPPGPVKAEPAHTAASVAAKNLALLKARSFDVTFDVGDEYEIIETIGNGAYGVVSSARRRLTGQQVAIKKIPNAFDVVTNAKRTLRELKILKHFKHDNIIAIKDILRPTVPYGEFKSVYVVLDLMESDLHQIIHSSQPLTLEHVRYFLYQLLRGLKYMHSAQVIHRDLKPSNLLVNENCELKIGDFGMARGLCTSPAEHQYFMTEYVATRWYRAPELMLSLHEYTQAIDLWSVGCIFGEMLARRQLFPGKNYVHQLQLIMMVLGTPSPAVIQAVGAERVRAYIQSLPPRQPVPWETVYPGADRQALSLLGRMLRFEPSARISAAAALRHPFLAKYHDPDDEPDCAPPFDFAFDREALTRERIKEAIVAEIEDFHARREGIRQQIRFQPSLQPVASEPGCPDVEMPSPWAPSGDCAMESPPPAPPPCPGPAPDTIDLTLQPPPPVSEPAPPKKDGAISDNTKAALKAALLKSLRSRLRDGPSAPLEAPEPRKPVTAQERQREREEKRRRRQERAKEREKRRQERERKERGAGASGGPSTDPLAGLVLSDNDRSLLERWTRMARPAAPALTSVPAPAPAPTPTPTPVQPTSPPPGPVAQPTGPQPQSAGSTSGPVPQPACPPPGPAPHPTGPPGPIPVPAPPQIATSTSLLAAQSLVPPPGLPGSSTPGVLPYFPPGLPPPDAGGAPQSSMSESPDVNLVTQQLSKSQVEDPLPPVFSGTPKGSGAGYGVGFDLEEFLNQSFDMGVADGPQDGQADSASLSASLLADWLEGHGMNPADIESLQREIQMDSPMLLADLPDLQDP

For `O=C(Nc1ccc(F)nc1)c1cc(C(=O)c2c(F)cccc2Cl)c[nH]1` [Example 152, 4-(2-Chloro-6-fluorobenzoyl)-N-(6-fluoropyridin-3-yl)-1H-pyrrole-2-carboxamide], the pIC50 is 5.83.
Turning to `O=C(Nc1ccc(F)nc1)c1cc(C(=O)c2c(F)cccc2Br)c[nH]1` [Example 153, 4-(2-Bromo-6-fluorobenzoyl)-N-(6-fluoropyridin-3-yl)-1H-pyrrole-2-carboxamide], the pIC50 was 5.77.
`Cc1ncc(NC(=O)c2cc(C(=O)c3c(F)cccc3Br)c[nH]2)cn1` [Example 155, 4-(2-Bromo-6-fluorobenzoyl)-N-(2-methylpyrimidin-5-yl)-1H-pyrrole-2-carboxamide]: the pIC50 was 5.93.
The result for `O=C(Nc1ccc2cn[nH]c2c1)c1cc(C(=O)c2c(F)cccc2Cl)c[nH]1` [Example 156, 4-(2-Chloro-6-fluorobenzoyl)-N-(1H-indazol-6-yl)-1H-pyrrole-2-carboxamide] reads 5.81; that for `O=C(Nc1ccc2cn[nH]c2c1)c1cc(C(=O)c2c(F)cccc2Br)c[nH]1` [Example 157, 4-(2-Bromo-6-fluorobenzoyl)-N-(1H-indazol-6-yl)-1H-pyrrole-2-carboxamide], 5.15; that for `O=C(Nc1ccncc1)c1cc(C(=O)c2cccc(Cl)c2Cl)c[nH]1` [Example 158, 4-(2,3-Dichlorobenzoyl)-N-(pyridin-4-yl)-1H-pyrrole-2-carboxamide], 5.26.
The result for `CCc1ccc(F)c(C(=O)c2c[nH]c(C(=O)Nc3cccnc3)c2)c1F` [Example 162] reads 5.88; that for `CCc1ccc(F)c(C(=O)c2c[nH]c(C(=O)Nc3cncnc3)c2)c1F` [Example 163, 4-(3-Ethyl-2,6-difluorobenzoyl)-N-(pyrimidin-5-yl)-1H-pyrrole-2-carboxamide], 5.46.
Consider `CCc1ccc(F)c(C(=O)c2c[nH]c(C(=O)NC3CCN(C)CC3)c2)c1F` [Example 164, 4-(3-Ethyl-2,6-difluorobenzoyl)-N-(1-methylpiperidin-4-yl)-1H-pyrrole-2-carboxamide], for which the negative-log IC50 (pIC50) was 6.21.
For `C=Cc1ccc(F)c(C(=O)c2c[nH]c(C(=O)Nc3cccnc3)c2)c1F` [Example 165, 4-(2,6-Difluoro-3-vinylbenzoyl)-N-(pyridin-3-yl)-1H-pyrrole-2-carboxamide], the pIC50 is 5.80.
With `C=Cc1ccc(F)c(C(=O)c2c[nH]c(C(=O)Nc3cncnc3)c2)c1F` [Example 166, 4-(2,6-Difluoro-3-vinylbenzoyl)-N-(pyrimidin-5-yl)-1H-pyrrole-2-carboxamide], the pIC50 was 5.86.
On to `C=C(C)c1ccc(F)c(C(=O)c2c[nH]c(C(=O)Nc3cccnc3)c2)c1F` [Example 168, 4-(2,6-Difluoro-3-(prop-1-en-2-yl)benzoyl)-N-(pyridin-3-yl)-1H-pyrrole-2-carboxamide], for which the pIC50 was 5.61.
The value for `O=C(Nc1cccnc1)c1cc(C(=O)c2c(F)ccc(Cl)c2Cl)c[nH]1` [Example 169, 4-(2,3-Dichloro-6-fluorobenzoyl)-N-(pyridin-3-yl)-1H-pyrrole-2-carboxamide] was 6.58.
The result for `O=C(Nc1cncnc1)c1cc(C(=O)c2c(F)ccc(Cl)c2Cl)c[nH]1` [Example 170, 4-(2,3-Dichloro-6-fluorobenzoyl)-N-(pyrimidin-5-yl)-1H-pyrrole-2-carboxamide] reads 6.46; that for `CN1CCC(NC(=O)c2cc(C(=O)c3c(F)ccc(Cl)c3Cl)c[nH]2)CC1` [Example 171, 4-(2,3-Dichloro-6-fluorobenzoyl)-N-(1-methylpiperidin-4-yl)-1H-pyrrole-2-carboxamide], 6.55.
Regarding `CN1CCC(NC(=O)c2cc(C(=O)c3c(Cl)ccc(Cl)c3F)c[nH]2)CC1` [Example 174, 4-(3,6-dichloro-2-fluorobenzoyl)-N-(1-methylpiperidin-4-yl)-1H-pyrrole-2-carboxamide], the pIC50 was 6.94.
The value for `Cc1ccc(F)c(C(=O)c2c[nH]c(C(=O)Nc3cccnc3)c2)c1Cl` [Example 175, 4-(2-Chloro-6-fluoro-3-methylbenzoyl)-N-(pyridin-3-yl)-1H-pyrrole-2-carboxamide] was 6.19.
The result for `Cc1ccc(F)c(C(=O)c2c[nH]c(C(=O)Nc3cncnc3)c2)c1Cl` [Example 176, 4-(2-Chloro-6-fluoro-3-methylbenzoyl)-N-(pyrimidin-5-yl)-1H-pyrrole-2-carboxamide] reads 5.93.
The result for `Cc1ccc(F)c(C(=O)c2c[nH]c(C(=O)NC3CCN(C)CC3)c2)c1Cl` [Example 177, 4-(2-Chloro-6-fluoro-3-methylbenzoyl)-N-(1-methylpiperidin-4-yl)-1H-pyrrole-2-carboxamide] reads 6.33; that for `Cc1ccc(Cl)c(C(=O)c2c[nH]c(C(=O)Nc3cccnc3)c2)c1F` [Example 178, 4-(6-Chloro-2-fluoro-3-methylbenzoyl)-N-(pyridin-3-yl)-1H-pyrrole-2-carboxamide], 6.29; that for `Cc1ccc(Cl)c(C(=O)c2c[nH]c(C(=O)Nc3cncnc3)c2)c1F` [Example 179, 4-(6-Chloro-2-fluoro-3-methylbenzoyl)-N-(pyrimidin-5-yl)-1H-pyrrole-2-carboxamide], 6.58.
For `Cc1ccc(Cl)c(C(=O)c2c[nH]c(C(=O)NC3CCN(C)CC3)c2)c1F` [Example 180, 4-(6-Chloro-2-fluoro-3-methylbenzoyl)-N-(1-methylpiperidin-4-yl)-1H-pyrrole-2-carboxamide], the pIC50 was 6.31.
The result for `O=C(Nc1cccnc1)c1cc(C(=O)c2c(Cl)ccc(Br)c2F)c[nH]1` [Example 181, 4-(3-Bromo-6-chloro-2-fluorobenzoyl)-N-(pyridin-3-yl)-1H-pyrrole-2-carboxamide] reads 7.18; that for `O=C(Nc1cncnc1)c1cc(C(=O)c2c(Cl)ccc(Br)c2F)c[nH]1` [Example 182, 4-(3-Bromo-6-chloro-2-fluorobenzoyl)-N-(pyrimidin-5-yl)-1H-pyrrole-2-carboxamide], 6.22.
The value for `Cc1cccc(F)c1C(=O)c1c[nH]c(C(=O)Nc2ccncc2)c1` [Example 185, 4-(2-Fluoro-6-methylbenzoyl)-N-(pyridin-4-yl)-1H-pyrrole-2-carboxamide] was 5.72; that for `Cc1cccc(F)c1C(=O)c1c[nH]c(C(=O)Nc2cccnc2)c1` [Example 186, 4-(2-Fluoro-6-methylbenzoyl)-N-(pyridin-3-yl)-1H-pyrrole-2-carboxamide] was 5.59; that for `CC(C)(C)OC(=O)N1CCC(NC(=O)c2cc(C(=O)c3c(F)cccc3Cl)c[nH]2)CC1` [Example 193, tert-Butyl 4-(4-(2-chloro-6-fluorobenzoyl)-1H-pyrrole-2-carboxamido)piperidine-1-carboxylate] was 5.97.
For `O=C(NC1CCOCC1)c1cc(C(=O)c2c(F)cccc2Cl)c[nH]1` [Example 194, 4-(2-Chloro-6-fluorobenzoyl)-N-(tetrahydro-2H-pyran-4-yl)-1H-pyrrole-2-carboxamide], the pIC50 was 6.07.
For the compound `CN1CCC(NC(=O)c2cc(C(=O)c3c(F)cccc3Br)c[nH]2)CC1` [Example 195, 4-(2-Bromo-6-fluorobenzoyl)-N-(1-methylpiperidin-4-yl)-1H-pyrrole-2-carboxamide], the pIC50 was 6.54.
Turning to `CC(C)(C)OC(=O)N1CCC(NC(=O)c2cc(C(=O)c3c(F)cccc3Br)c[nH]2)CC1` [Example 196, tert-Butyl 4-(4-(2-bromo-6-fluorobenzoyl)-1H-pyrrole-2-carboxamido)piperidine-1-carboxylate], the pIC50 was 5.57.
The result for `O=C(NC1CCOCC1)c1cc(C(=O)c2c(F)cccc2Br)c[nH]1` [Example 198, 4-(2-Bromo-6-fluorobenzoyl)-N-(tetrahydro-2H-pyran-4-yl)-1H-pyrrole-2-carboxamide] reads 5.91; that for `CCc1cccc(F)c1C(=O)c1c[nH]c(C(=O)Nc2cccnc2)c1` [Example 199, 4-(2-Ethyl-6-fluorobenzoyl)-N-(pyridin-3-yl)-1H-pyrrole-2-carboxamide], 4.90.
The value for `CCc1cccc(F)c1C(=O)c1c[nH]c(C(=O)NC2CCNCC2)c1` [Example 200, 4-(2-Ethyl-6-fluorobenzoyl)-N-(piperidin-4-yl)-1H-pyrrole-2-carboxamide] was 5.30; that for `CCc1cccc(F)c1C(=O)c1c[nH]c(C(=O)NC2CCN(C)CC2)c1` [Example 201, 4-(2-Ethyl-6-fluorobenzoyl)-N-(1-methylpiperidin-4-yl)-1H-pyrrole-2-carboxamide] was 5.30.
The result for `O=C(Nc1cccnc1)c1cc(C(=O)c2c(F)cccc2C2CC2)c[nH]1` [Example 202, 4-(2-Cyclopropyl-6-fluorobenzoyl)-N-(pyridin-3-yl)-1H-pyrrole-2-carboxamide] reads 4.64; that for `O=C(NC1CCNCC1)c1cc(C(=O)c2c(F)cccc2C2CC2)c[nH]1` [Example 203, 4-(2-Cyclopropyl-6-fluorobenzoyl)-N-(piperidin-4-yl)-1H-pyrrole-2-carboxamide], 5.24.
`CN1CCC(NC(=O)c2cc(C(=O)c3c(F)cccc3C3CC3)c[nH]2)CC1` [Example 204, 4-(2-Cyclopropyl-6-fluorobenzoyl)-N-(1-methylpiperidin-4-yl)-1H-pyrrole-2-carboxamide]: the pIC50 is 5.08.
In the case of `C#Cc1cccc(F)c1C(=O)c1c[nH]c(C(=O)NC2CCN(C)CC2)c1` [Example 205, 4-(2-Ethynyl-6-fluorobenzoyl)-N-(1-methylpiperidin-4-yl)-1H-pyrrole-2-carboxamide], the pIC50 was 5.55.
The result for `O=C(Nc1cccnc1)c1cc(C(=O)c2c(F)ccc(F)c2F)c[nH]1` [Example 206, N-(Pyridin-3-yl)-4-(2,3,6-trifluorobenzoyl)-1H-pyrrole-2-carboxamide] reads 6.40.
Turning to `O=C(Nc1cncnc1)c1cc(C(=O)c2c(F)ccc(F)c2F)c[nH]1` [Example 207, N-(Pyrimidin-5-yl)-4-(2,3,6-trifluorobenzoyl)-1H-pyrrole-2-carboxamide], the pIC50 is 5.97.
Consider `O=C(NC1CCNCC1)c1cc(C(=O)c2c(F)ccc(F)c2F)c[nH]1` [Example 208, N-(Piperidin-4-yl)-4-(2,3,6-trifluorobenzoyl)-1H-pyrrole-2-carboxamide], for which the pIC50 is 6.21.
